Measurements reported in patent US20180038871A1, “DIAGNOSTIC BIOMARKER TO IDENTIFY WOMEN AT RISK FOR PRETERM DELIVERY” (CEDARS-SINAI MEDICAL CENTER, priority 2009, published 2018).
“Also recorded” adds a separate entry of the source.

System: Peripheral blood mononuclear cells (PBMC)
Assay: LPS-induced cytokine expression profile in PBMC with or without cortisol pretreatment (Bioplex)
Format: cell-based, human
Set-up: key to Cortisol Effect on IFN-g secretion level / LPS Effect on IFN-g secretion level / Cortisol Effect on TNF-a secretion level / Cortisol Effect on GM-CSF secretion level / LPS Effect on GM-CSF secretion level / Cortisol Effect on IL-2 secretion level / LPS Effect on IL-2 secretion level / Cortisol Effect on IL-4 secretion level / Cortisol Effect on IL-10 secretion level: n/c = No Change
Description: Peripheral blood mononuclear cells (PBMC) from non-pregnant (at least 5-6 years post-partum) women with history of preterm or full term delivery, in addition to the microbial component lipopolysaccharide (LPS)-induced cytokine expression profile were examined. PBMC were separated from whole blood using Ficoll gradient. The cells were counted and equal numbers of cells were plated in 24 well plates. PBMC were treated with cortisol (50 or 300 ug/ml) or media for 1 hour prior to stimulation with LPS (0, 1, or 100 ug/ml) for 24 hours.
The PBMC were lysed and the supernatant was examined for inflammatory and anti-inflammatory cytokine expression by using Bioplex technology (Bio-rad).
In this study two patients were preterm and four were full term. There were 9 samples per patient (3×3 design) and all samples from each patient were analyzed twice for cytokine concentrations with the exception of one full term subject who only had one analysis of each sample. As a result there are a total of 99 observations for each cytokine measured. The assay simultaneously measured concentrations of 11 inflammatory markers: IL-1ra (IL1-receptor antagonist), IL-2, IL-4, IL-5, IL-8, IL-10, IL-12, IL-13, GM-CSF, IFN-g, and TNF-a.
All raw data was tested via the Kolmogorov-Smirnov test to determine if the data followed a normal distribution. Log-transformations were performed for all data found to have a non-normal distribution prior to further statistical analysis. For each cytokine, a mixed effects model was used to examine all data for significant effects with the outcome variable as the cytokine concentration; the fixed predictor variables as LPS concentration, cortisol concentration, and delivery status (pre- or full-term); and the random effect due to the replicate data points. To test the interaction of the three fixed predictor variables on cytokine concentration, both first and second level interactions ware added to each cytokine model. Post-hoc testing was performed using a Student's t-test.
Using the same mixed model regression, estimated group means and standard errors were calculated. Differences between preterm and full-term pregnancies were considered significant where p <0.10.

[1] = 0 or 1 ug/ml LPS 24 hours, 0 or 300 ug/ml cortisol pretreatment, mixed modeling
[2] = 0 or 300 ug/ml cortisol pretreatment 1 hour, 0 or 1 ug/ml LPS 24 hours, mixed modeling
[3] = 0 or 300 ug/ml cortisol pretreatment 1 hour, 0 or 1 ug/ml LPS 24 hours, mixed modeling, listed as cortisol
[4] = all 99 observations, 300 ug/ml vs 50 ug/ml cortisol

Compound: lipopolysaccharide [LPS]
- LPS Effect on GM-CSF secretion level [1]: n/c, p = .19
- LPS Effect on IFN-g secretion level [1]: n/c, p = .17
- LPS Effect on IL-1ra secretion level [1]: increased secretion; also recorded: increase, p = .09
- LPS Effect on IL-2 secretion level [1]: n/c, p = .50
- LPS Effect on IL-4 secretion level [1]: increased secretion; also recorded: increase, p = .07
- LPS Effect on IL-10 secretion level [1]: increased secretion; also recorded: increase, p = .01
- LPS Effect on IL-13 secretion level [1]: increased secretion; also recorded: increase, p = .04
- LPS Effect on TNF-a secretion level [1]: increased secretion; also recorded: increase, p = .04
- Difference between the effects of 1 ug/ml and 100 ug/ml LPS, all cytokines measured (all 99 observations, 1 ug/ml vs 100 ug/ml LPS): no significant difference

Compound: C[C@]12CCC(=O)C=C1CC[C@@H]1[C@@H]2[C@@H](O)C[C@@]2(C)[C@H]1CC[C@]2(O)C(=O)CO [Cortisol, cortisol]
- Cortisol Effect on GM-CSF secretion level [2]: n/c, p = .51
- Cortisol Effect on IFN-g secretion level [2]: n/c, p = .10
- Cortisol Effect on IL-1ra secretion level [2]: decrease, p = .03
- Cortisol Effect on IL-2 secretion level [2]: n/c, p = .80
- Cortisol Effect on IL-4 secretion level [2]: n/c, p = .26
- Cortisol Effect on IL-10 secretion level [2]: n/c, p = .12
- Cortisol Effect on IL-13 secretion level [2]: decrease, p = .01
- Cortisol Effect on TNF-a secretion level [2]: n/c, p = .41
- Cortisol Effect on IL-1ra secretion level [3]: suppress secretion
- Cortisol Effect on IL-13 secretion level [3]: suppress secretion
- Suppression of IL-1ra level, 300 ug/ml cortisol compared with 50 ug/ml [4]: more significant effect to suppress cytokine levels
- Suppression of IL-10 level, 300 ug/ml cortisol compared with 50 ug/ml [4]: more significant effect to suppress cytokine levels
- Suppression of IL-13 level, 300 ug/ml cortisol compared with 50 ug/ml [4]: more significant effect to suppress cytokine levels
